Assay results: patent publication US7816522B2, “Triazolone derivatives” (Eisai Co., Ltd., priority 2006, dated 2010)

biological target: T1, human clotting factor VIIa (Homo sapiens, UniProt P08709); assay: Inhibitory activity against clotting factor VIIa (chromogenic substrate Spectrozyme FVIIa, TF/Factor VIIa enzyme solution); type: biochemical; conditions: human Factor VIIa 5 nmol/L with human TF 10 nmol/L, room temperature 40 minutes, 405 nm
T1 construct: a human clotting factor VIIa (hereinafter, “Factor VIIa”) purified sample; purchased Enzyme Research Laboratories HFVIIa
How it was run: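 Human Factor VIIa (5 nmol/L) with human TF (10 nmol/L) in Tris-BSA buffer pH 7.4 containing 15 mmol/L CaCl2 and cephalin, with Spectrozyme FVIIa substrate. Reaction 40 min at room temperature; 4-nitroanilide read at 405 nm. IC50 by non-linear regression over 100 μmol/L–0.1 nmol/L.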

T1 sequence (P08709 213-466 limits assumed): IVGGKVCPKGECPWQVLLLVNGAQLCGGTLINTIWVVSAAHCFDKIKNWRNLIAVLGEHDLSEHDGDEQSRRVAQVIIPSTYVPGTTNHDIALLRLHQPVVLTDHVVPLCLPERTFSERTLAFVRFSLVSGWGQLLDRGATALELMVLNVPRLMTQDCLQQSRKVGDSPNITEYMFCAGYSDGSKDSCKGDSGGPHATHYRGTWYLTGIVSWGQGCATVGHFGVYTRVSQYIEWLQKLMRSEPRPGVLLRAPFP
T1 sequence (P08709 61-212 limits assumed): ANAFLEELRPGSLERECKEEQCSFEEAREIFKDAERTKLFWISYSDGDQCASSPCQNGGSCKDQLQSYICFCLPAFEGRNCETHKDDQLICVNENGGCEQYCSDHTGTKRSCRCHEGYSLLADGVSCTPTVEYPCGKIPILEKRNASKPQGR
T1 sequence (P13726 33-295 partner): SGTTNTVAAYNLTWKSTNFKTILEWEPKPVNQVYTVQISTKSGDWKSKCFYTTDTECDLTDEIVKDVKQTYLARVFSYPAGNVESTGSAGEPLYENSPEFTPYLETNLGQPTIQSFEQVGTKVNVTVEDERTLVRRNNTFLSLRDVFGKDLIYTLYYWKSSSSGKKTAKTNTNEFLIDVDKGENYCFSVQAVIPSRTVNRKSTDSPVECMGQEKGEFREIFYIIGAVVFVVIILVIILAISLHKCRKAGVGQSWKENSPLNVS

Row | Compound | IC50 [nM]
1 | Cc1cc(O[C@H]2CCOC2)cc(C(Nc2ccc(C(=N)N)cc2)c2nn(-c3ncccn3)c(=O)[nH]2)c1 (mixture of isomers) [Example 58, 4-[((R) and (S)-{3-methyl-5-[(S)-(tetrahydrofuran-3-yl)oxy]phenyl}-(5-oxo-1-pyrimidin-2-yl-4,5-dihydro-1H-[1,2,4]triazol-3-yl)methyl)amino]benzamidine acetate] | 3.4
2 | CCOc1cc(OCCF)cc(C(Nc2ccc(C(=N)N)cc2)c2nn(-c3cccnn3)c(=O)[nH]2)c1 (racemic) [Example 80, (R) and (S)-4-({[3-ethoxy-5-(2-fluoroethoxy)phenyl]-(5-oxo-1-pyridazin-3-yl-4,5-dihydro-1H-[1,2,4]triazol-3-yl)methyl}amino)benzamidine acetate] | 6.8
3 | CCOc1cccc(C(Nc2ccc(C(=N)N)cc2)c2nn(-c3ncccn3)c(=O)[nH]2)c1 (centres unmarked) [Example 90, 4-{[(3-ethoxyphenyl)-(5-oxo-1-pyrimidin-2-yl-4,5-dihydro-1H-[1,2,4]triazol-3-yl)methyl]amino}benzamidine acetate] | 66.6
4 | COc1cc(OCC#N)c(F)c(C(Nc2ccc(C(=N)N)cc2)c2nn(-c3cccnn3)c(=O)[nH]2)c1 (racemic) [Example 148, (R) and (S)-{[(3-cyanomethoxy-2-fluoro-5-methoxyphenyl)-(5-oxo-1-pyridazin-3-yl-4,5-dihydro-1H-[1,2,4]triazol-3-yl)methyl]amino}benzamidine acetate] | 8.7
5 | COc1cc(OCC(F)F)c(F)c(C(Nc2ccc(C(=N)N)cc2)c2nn(-c3ncccn3)c(=O)[nH]2)c1 (racemic) [Example 99, 4-{[(R) and (S)-[3-(2,2-difluoroethoxy)-2-fluoro-5-methoxyphenyl]-(5-oxo-1-pyrimidin-2-yl-4,5-dihydro-1H-[1,2,4]triazol-3-yl)methyl]amino}benzamidine acetate] | 3.9
6 | CCc1cc(OCCN(C)C)c(F)c(C(Nc2ccc(C(=N)N)cc2)c2nn(-c3ccccn3)c(=O)[nH]2)c1 (centres unmarked) [Example 140, 4-({[3-(2-dimethylaminoethoxy)-5-ethyl-2-fluorophenyl]-(5-oxo-1-pyridin-2-yl-4,5-dihydro-1H-[1,2,4]triazol-3-yl)methyl}amino)benzamidine bistrifluoroacetate] | 5.3
7 | COc1cc(C(Nc2ccc(C(=N)N)cc2)c2nn(-c3[nH]ncc3C(=O)O)c(=O)[nH]2)c(F)c2c1OCCCO2 (centres unmarked) [Example 196, 5-{3-[(4-Carbamimidoylphenylamino)-(6-fluoro-9-methoxy-3,4-dihydro-2H-benzo[b][1,4]dioxepin-7-yl)methyl]-5-oxo-4,5-dihydro-[1,2,4]triazol-1-yl}-1H-pyrazole-4-carboxylic acid acetate] | 17.8
8 | COCc1cc(C(Nc2ccc(C(=N)N)cc2)c2nn(-c3ncccn3)c(=O)[nH]2)cc(OC)c1OC (racemic) [Example 22, (R) and (S)-4-{[(3,4-dimethoxy-5-methoxymethyl-phenyl)-(5-oxo-1-pyrimidin-2-yl-4,5-dihydro-1H-[1,2,4]triazol-3-yl)methyl]amino}benzamidine acetate] | 8.3
9 | COc1cc(C(Nc2ccc(C(=N)N)cc2)c2nn(-c3ccccn3)c(=O)[nH]2)cc2c1OCOC2 (racemic) [Example 213, (R) and (S)-4-{[(8-Methoxy-4H-benzo[1,3]dioxin-6-yl)-(5-oxo-1-pyridin-2-yl-4,5-dihydro-1H-[1,2,4]triazol-3-yl)methyl]amino}benzamidine acetate] | 3.3
10 | COc1cc(OC)cc(C(Nc2ccc(C(=N)N)cc2)c2nn(-c3ncccc3C)c(=O)[nH]2)c1 (racemic) [Example 225, (R) and (S)-4-({(3,5-Dimethoxyphenyl)-[1-(3-methylpyridin-2-yl)-5-oxo-4,5-dihydro-1H-[1,2,4]triazol-3-yl]methyl}amino)benzamidine acetate] | 3.7
11 | COc1cc(OCCF)c(F)c(C(Nc2ccc(C(=N)N)cc2)c2nn(-c3ncccn3)c(=O)[nH]2)c1 (racemic) [Example 3, (R) and (S)-4-({[2-fluoro-3-(2-fluoroethoxy)-5-methoxyphenyl]-(5-oxo-1-pyrimidin-2-yl-4,5-dihydro-1H-[1,2,4]triazol-3-yl)methyl}amino)benzamidine acetate] | 4.8
12 | CCOc1cc(OC)cc(C(Nc2ccc(C(=N)N)cc2)c2nn(-c3cccnn3)c(=O)[nH]2)c1 (racemic) [Example 65, (R) and (S)-4-{[(3-ethoxy-5-methoxyphenyl)-(5-oxo-1-pyridazin-3-yl-4,5-dihydro-1H-[1,2,4]triazol-3-yl)methyl]amino}benzamidine acetate] | 5.3
13 | COc1cnc(C(Nc2ccc(C(=N)N)cc2)c2nn(-c3ccsc3C(=O)O)c(=O)[nH]2)cc1OC (racemic) [Example 170, 3-{3-[(R) and (S)-(4-carbamimidoylphenylamino)-(4,5-dimethoxypyridin-2-yl)methyl]-5-oxo-4,5-dihydro-[1,2,4]triazol-1-yl}thiophene-2-carboxylic acid] | 8
14 | COCCOc1cc(OC)cc(C(Nc2ccc(C(=N)N)cc2)c2nn(-c3ncccc3N)c(=O)[nH]2)c1F (racemic) [Example 203, 4-({(R) and (S)-[1-(3-Aminopyridin-2-yl)-5-oxo-4,5-dihydro-1H-[1,2,4]triazol-3-yl]-[2-fluoro-5-methoxy-3-(2-methoxyethoxy)phenyl]methyl}amino)benzamidine acetate] | 8.5
15 | COc1ccccc1-n1nc(C(Nc2ccc(C(=N)N)cc2)c2cc(C)c(OC)c(C)c2)[nH]c1=O (centres unmarked) [Example 112, 4-({(4-methoxy-3,5-dimethylphenyl)-[1-(2-methoxyphenyl)-5-oxo-4,5-dihydro-1H-[1,2,4]triazol-3-yl]methyl}amino)benzamidine acetate] | 7.2
16 | CCOc1cc(O)cc(C(Nc2ccc(C(=N)N)cc2)c2nn(-c3ncccn3)c(=O)[nH]2)c1 (racemic) [Example 221, 4-{[(3-Ethoxy-5-hydroxyphenyl)-(5-oxo-1-pyrimidin-2-yl-4,5-dihydro-1H-[1,2,4]triazol-3-yl)methyl]amino}benzamidine] | 25.8
17 | COc1cc(C(Nc2ccc(C(=N)N)cc2)c2nn(-c3cccnn3)c(=O)[nH]2)cc(OCCF)c1OC (racemic) [Example 89, 4-{[(R) and (S)-[3-(2-fluoroethoxy)-4,5-dimethoxyphenyl]-(5-oxo-1-pyridazin-3-yl-4,5-dihydro-1H-[1,2,4]triazol-3-yl)methyl]amino}benzamidine acetate] | 9.2

The remaining molecules from weak to strong by IC50, led by results:

Row | IC50 [nM] | Compound
18 | 29.7 | COc1cc(CF)cc(C(Nc2ccc(C(=N)N)cc2)c2nn(-c3ncccn3)c(=O)[nH]2)c1 (centres unmarked) [Example 11, 4-{[(3-fluoromethyl-5-methoxyphenyl)-(5-oxo-1-pyrimidin-2-yl-4,5-dihydro-1H-[1,2,4]triazol-3-yl)methyl]amino}benzamidine acetate]
19 | 23.7 | COc1cc(OC)cc(C(Nc2ccc(C(=N)N)cc2)c2nn(-c3ncsc3C(=O)O)c(=O)[nH]2)c1 (racemic) [Example 232, (R) and (S)-4-{3-[(4-Carbamimidoylphenylamino)-(3,5-dimethoxyphenyl)methyl]-5-oxo-4,5-dihydro-[1,2,4]triazol-1-yl}thiazole-5-carboxylic acid]
20 | 19.9 | COc1cc(OCCO)cc(C(Nc2ccc(C(=N)N)cc2)c2nn(-c3ncccc3N)c(=O)[nH]2)c1 (centres unmarked) [Example 207, 4-({[1-(3-Aminopyridin-2-yl)-5-oxo-4,5-dihydro-1H-[1,2,4]triazol-3-yl]-[3-(2-hydroxyethoxy)-5-methoxyphenyl]methyl}amino)benzamidine acetate]
21 | 7.9 | COc1cc(C(Nc2ccc(C(=N)N)cc2)c2nn(-c3ncsc3C(=O)O)c(=O)[nH]2)c(F)c2c1OCCC2 (racemic) [Example 190, 4-{3-[(R) and (S)-(4-Carbamimidoylphenylamino)-(5-fluoro-8-methoxychroman-6-yl)methyl]-5-oxo-4,5-dihydro-[1,2,4]triazol-1-yl}thiazole-5-carboxylic acid]
22 | 7.1 | COc1cc(C(Nc2ccc(C(=N)N)cc2)c2nn(-c3ncccn3)c(=O)[nH]2)cc2c1OCC2 (racemic) [Example 31, (R) and (S)-4-{[(7-methoxy-2,3-dihydrobenzofuran-5-yl)-(5-oxo-1-pyrimidin-2-yl-4,5-dihydro-1H-[1,2,4]triazol-3-yl)methyl]amino}benzamidine acetate]
23 | 6.5 | CCOC(=O)c1cn[nH]c1-n1nc(C(Nc2ccc(C(=N)N)cc2)c2cc(OC)c3c(c2F)OCCO3)[nH]c1=O (centres unmarked) [Example 175, 5-{3-[(4-carbamimidoylphenylamino)-(5-fluoro-8-methoxy-2,3-dihydrobenzo[1,4]dioxin-6-yl)methyl]-5-oxo-4,5-dihydro-[1,2,4]triazol-1-yl}-1H-pyrazole-4-carboxylic acid ethyl ester acetate]
24 | 5.6 | COc1cc(OCCF)cc(C(Nc2ccc(C(=N)N)cc2)c2nn(-c3ncccn3)c(=O)[nH]2)c1 (racemic) [Example 61, (R) and (S)-4-({[3-(2-fluoroethoxy)-5-methoxyphenyl]-(5-oxo-1-pyrimidin-2-yl-4,5-dihydro-1H-[1,2,4]triazol-3-yl)methyl}amino)benzamidine acetate]
25 | 3.4 | COc1cc(C(Nc2ccc(C(=N)N)cc2)c2nn(-c3ccsc3C(=O)O)c(=O)[nH]2)c(F)c2c1OCC2 (racemic) [Example 215, (R) and (S)-3-{3-[(4-Carbamimidoylphenylamino)-(4-fluoro-7-methoxy-2,3-dihydrobenzofuran-5-yl)methyl]-5-oxo-4,5-dihydro[1,2,4]triazol-1-yl}thiophene-2-carboxylic acid]
26 | 1.8 | COc1cc(OCCF)c(F)c(C(Nc2ccc(C(=N)N)cc2)c2nn(-c3cccc(N)n3)c(=O)[nH]2)c1 (racemic) [Example 174, (R) and (S)-4-({[1-(6-aminopyridin-2-yl)-5-oxo-4,5-dihydro-1H-[1,2,4]triazol-3-yl]-[2-fluoro-3-(2-fluoroethoxy)-5-methoxyphenyl]methyl}amino)benzamidine acetate]
